Source: patent publication US20260199500A1, “Camptothecin Derivative, Conjugate Thereof, Preparation Method Therefor and Medical Use Thereof” (priority 2023, published 2026)

Key:
[1] = test system: MDA-MB-468 breast cancer cells; test: Inhibitory activity of compounds on MDA-MB-468 breast cancer cells (CellTiter-Glo); format: cell-based; settings: for IC50 on 468 cells, ratio to DXD: IC50 of PY-X (DXD) set to 1, values are ratios of measured IC50 to DXD
Description: (§1) On the day of the experiment, the cells were digested with 0.25% trypsin (Gibco, 25200-072), filtered through a 40 μm sieve, diluted with the corresponding medium to a cell density of 1×10^4 cells/mL, and inoculated into a 96-well white cell culture plate (Beyotime, FCP968), with 100 μL of cells added per well. The culture plate was placed in a 37° C. incubator (Thermo 311) containing 5% C02 and incubated for 24 hours. On the second day, the samples to be tested were prepared as a stock solution at a final concentration of 1M in DMSO (Sigma, D1650), then diluted with the corresponding medium to a final concentration of 200 nM, and subjected to four-fold serial dilutions, resulting in a total of 9 concentrations. 100 μL of the diluted sample was added to each well of the 96-well plate. The plate was placed in a 37° C. incubator containing 5% CO2 and incubated for 144 hours. The cell culture plate was then removed, and 100 μL of the cell viability assay reagent (CellTiter-Glo® Luminescent Cell Viability Assay, Promega, G7571) was added to each well. The reaction was carried out in the dark at room temperature for 5 minutes. Luminescence values were read using a microplate reader (TECAN SPARK), and data were processed using Graphpad Prism 7 software.
(§2) PY—Y is referenced in the document (WO2022170971A1); and PY-A is referenced in the document (WO2021148501A1).

[2] = test system: N87 gastric cancer cells; test: Inhibitory activity of compounds on N87 gastric cancer cells (CellTiter-Glo, 144 h); format: cell-based; settings: for IC50 on N87 cells, ratio to DXD: IC50 of PY-X (DXD) set to 1, values are ratios of measured IC50 to DXD, 144 h
Description: as §1, §2

[3] = Log D of small molecules (1-octanol / phosphate buffer pH 2.5 and pH 7.4, LC-MS/MS); format: physicochemical
Description: (1) Preparation of 100 mM phosphate buffer (PB) solution at pH 2.5 and pH 7.4 respectively: • a. Preparation of a solution of 100 mM H3PO4 in water: 14.7 M H3PO4 was diluted with water to a concentration of 100 mM H3PO4, and the pH was measured to be approximately 1.8. • b. Preparation of 100 mM NaH2PO4: 5.999 g of NaH2PO4 was dissolved in 500 mL of water and the pH was measured to be approximately 4.5. • c. Preparation of 100 mM Na2HPO4: 7.098 g of Na2HPO4 was dissolved in water to a volume of 500 mL and the pH was measured to be approximately 9.4. • d. Preparation of 100 mM PB (pH 2.5): 15 mL of 100 mM H3PO4 was added to a 50 mL tube, and then pH was adjusted to 2.5±0.05 with 100 mM NaH2PO4. • d. Preparation of 100 mM PB (pH 7.4): 15 mL of 100 mM Na2HPO4 was added to a 50 mL tube, and then pH was adjusted to 7.4±0.05 with 100 mM NaH2PO4.
(2) Saturation of PBs (pH 2.5 and pH 7.4) with 1-octanol: 10 mL of 1-octanol was added to 100 mL of 100 mM PBs (pH 2.5 and pH 7.4), and the mixture was shaken vigorously, and then allowed to stand overnight at room temperature for later use.
(3) Saturation of 1-octanol with PBs (pH 2.5 and pH 7.4): 10 mL of 100 mM PBs (pH 2.5 and pH 7.4) was added to 100 mL of 1-octanol, and the mixture was shaken vigorously, and then allowed to stand overnight at room temperature for later use.
2.1) 2 μL of 10 mM DMSO stock solution of the test compound were dispensed into test tubes, in duplicate.
2.2) 149 μL of PB saturated with 1-octanol (pH 2.5 and 7.4) were added to the tubes.
2.3) 149 μL of PB (pH 2.5 and 7.4) saturated with 1-octanol were added to the corresponding tubes.
2.4) Each tube was vigorously mixed for 2 minutes, then shaken at 800 rpm for 1 hour at room temperature.
2.5) The tubes were centrifuged at 4000 rpm for 5 minutes at room temperature.
2.6) Appropriate volumes of the buffer phase and 1-octanol phase samples were aliquoted.
2.7) These samples were diluted and analyzed using LC-MS/MS without running a calibration curve.
2.8) Data analysis: The log D value of each compound was calculated using the following formula: f

[4] = test system: Colo-205 (Colon) cells; test: Inhibition of Colo-205 cells by compounds; format: cell-based; settings: PY-X (DXD) set to 1
Description: as §1

[5] = test system: H82 (SCLC) cells; test: Inhibition of H82 cells by compounds; format: cell-based; settings: PY-X (DXD) set to 1
Description: as §1

[6] = test system: PANC-1 (Pancreatic) cells; test: Inhibition of PANC-1 cells by compounds; format: cell-based; settings: PY-X (DXD) set to 1
Description: as §1

[7] = test system: H1437 (NSCLC) cells; test: Inhibition of H1437 cells by compounds; format: cell-based; settings: PY-X (DXD) set to 1
Description: as §1

[8] = test system: SW1573 (NSCLC) cells; test: Inhibition of SW1573 cells by compounds; format: cell-based; settings: PY-X (DXD) set to 1
Description: as §1

[9] = test system: HT-29 (Colon) cells; test: Inhibition of HT-29 cells by compounds; format: cell-based; settings: PY-X (DXD) set to 1
Description: as §1

[10] = test system: SW1990 (Pancreatic) cells; test: Inhibition of SW1990 cells by compounds; format: cell-based; settings: PY-X (DXD) set to 1
Description: as §1

[11] = test system: A549 (NSCLC) cells; test: Inhibition of A549 cells by compounds; format: cell-based; settings: PY-X (DXD) set to 1
Description: as §1

[12] = test system: H1650 (NSCLC) cells; test: Inhibition of H1650 cells by compounds; format: cell-based; settings: PY-X (DXD) set to 1
Description: as §1

[13] = samples retested together, ratio of measured IC50 to DXD

CC[C@@]1(O)C(=O)OCc2c1cc1n(c2=O)Cc2c-1nc1cc(F)c(CCCCN)c3c1c2CCC3 [PY-24]
IC50 on 468 cells, ratio to DXD [1]: 2.2057
IC50 on N87 cells, ratio to DXD [2]: 1.5288

CC[C@@]1(O)C(=O)OCc2c1cc1n(c2=O)Cc2c-1nc1cc(F)c(OC)c3c1c2[C@@H](N)CC3 [PY-12A, (1S,9S)-1-amino-9-ethyl-5-fluoro-9-hydroxy-4-methoxy-1,2,3,9,12,15-hexahydro-10H,13H-benzo[de]pyrano[3′,4:6,7]indolizino[1,2-b]quinolin-10,13-dione]
IC50 on 468 cells, ratio to DXD [1]: 3.3035
IC50 on N87 cells, ratio to DXD [2]: 1.6441

CC[C@@]1(O)C(=O)OCc2c1cc1n(c2=O)Cc2c-1nc1cc(F)c(OCCN)c3c1c2CCC3 [PY-17, (S)-4-(2-aminoethoxy)-9-ethyl-5-fluoro-9-hydroxy-1,2,3,9,12,15-hexahydro-10H,13H-benzo[d]pyrano[3′,4′:6,7]indolizino[1,2-b]quinolin-10,13-dione]
IC50 on 468 cells, ratio to DXD [1]: 8.0396
IC50 on N87 cells, ratio to DXD [2]: 3.7859

CC[C@@]1(O)C(=O)OCc2c1cc1n(c2=O)Cc2c-1nc1cc(F)c(COC(=O)NCCO)c3c1c2CCC3 [PY-27(10Car), (S)-(9-ethyl-5-fluoro-9-hydroxy-10,13-dioxy-2,3,9,10,13,15-hexahydro-1H,12H-benzo[d]pyrano[3′,4′:6,7]indolizino[1,2-b]quinolin-4-yl)methyl(2-hydroxyethyl)carbamate]
IC50 on 468 cells, ratio to DXD [1]: 3.7610
IC50 on N87 cells, ratio to DXD [2]: 3.3500

CC[C@@]1(O)C(=O)OCc2c1cc1n(c2=O)Cc2c-1nc1cc(F)c(OC)c3c1c2CCC3 [PY-11, (S)-9-ethyl-5-fluoro-9-hydroxy-4-methoxy-1,2,3,9,12,15-hexahydro-10H,13H-benzo[de]pyrano[3′,4:6,7]indolizino[1,2-b]quinolin-10,13-dione]
IC50 on 468 cells, ratio to DXD [1]: 0.9642
IC50 on N87 cells, ratio to DXD [2]: 0.0606

(S)-9-ethyl-5-fluoro-9-hydroxy-1,2,3,9,12,15-hexahydro-10H,13H-benzo[de]pyrano[3′,4′: 6,7]indolizino[1,2-b]quinolin-10,13-dione [PY-10B]
IC50 on 468 cells, ratio to DXD [1]: 0.4362
IC50 on N87 cells, ratio to DXD [2]: 0.1623

CC[C@@]1(O)C(=O)OCc2c1cc1n(c2=O)Cc2c-1nc1cc(F)c(C)c3c1c2[C@@H](NC(=O)CO)CC3 [PY-X (DXD), exatecan DXD, reference compound]
IC50 on 468 cells, ratio to DXD [1]: 1.0000
IC50 on N87 cells, ratio to DXD [2]: 1.0000
Log D2.5 (Oct/buff) Result ([3]; 1-octanol / phosphate buffer pH 2.5): 1.68
Log D7.4 (Oct/buff) Result ([3]; 1-octanol / phosphate buffer pH 7.4): 1.67

CC[C@@]1(O)C(=O)OCc2c1cc1n(c2=O)Cc2c-1nc1cc(F)c(OC)c3c1c2[C@H](N)CC3 [PY-12B, (1R,9S)-1-amino-9-ethyl-5-fluoro-9-hydroxy-4-methoxy-1,2,3,9,12,15-hexahydro-10H,13H-benzo[de]pyrano[3′,4:6,7]indolizino[1,2-b]quinolin-10,13-dione]
IC50 on 468 cells, ratio to DXD [1]: 8.4257
IC50 on N87 cells, ratio to DXD [2]: 5.3044

CC[C@@]1(O)C(=O)OCc2c1cc1n(c2=O)Cc2c-1nc1ccc(CO)c3c1c2CCC3 [PY-37A, (S)-9-ethyl-9-hydroxy-4-(hydroxymethyl)-1,2,3,9,12,15-hexahydro-10 h,13 h-benzo[de]pyrano[3′,4′:6,7]indolizino[1,2-b]quinolin-10,13-dione]
IC50 in Colo-205 cells, ratio to DXD [4]: 0.2763
IC50 in H82 cells, ratio to DXD [5]: 0.4153
IC50 in PANC-1 cells, ratio to DXD [6]: 0.1992
IC50 in H1437 cells, ratio to DXD [7]: 0.2619
IC50 in SW1573 cells, ratio to DXD [8]: 0.2884
IC50 in HT-29 cells, ratio to DXD [9]: 0.2181
IC50 in SW1990 cells, ratio to DXD [10]: 0.2986
IC50 in A549 cells, ratio to DXD [11]: 0.2044
IC50 in H1650 cells, ratio to DXD [12]: 0.2611

CC[C@@]1(O)C(=O)OCc2c1cc1n(c2=O)Cc2c-1nc1cc(F)c(CCN)c3c1c2CCC3 [PY-20]
IC50 on 468 cells, ratio to DXD [1]: 1.2806
IC50 on N87 cells, ratio to DXD [2]: 1.0070

CC[C@@]1(O)C(=O)OCc2c1cc1n(c2=O)Cc2c-1nc1cc(Cl)c(CN)c3c1c2CCC3 [PY-36, (S)-4-(aminomethyl) 5-chloro-9-ethyl-9-hydroxy-1,2,3,9,12,15-hexahydro-10 h,13 h-benzo[de]pyrano[3′,4′:6,7]indolizino[1,2-b]quinolin-10,13-dione]
IC50 in Colo-205 cells, ratio to DXD [4]: 0.9857
IC50 in H82 cells, ratio to DXD [5]: 1.5585
IC50 in PANC-1 cells, ratio to DXD [6]: 0.6317
IC50 in H1437 cells, ratio to DXD [7]: 1.1187
IC50 in SW1573 cells, ratio to DXD [8]: 0.7619
IC50 in HT-29 cells, ratio to DXD [9]: 0.4909
IC50 in SW1990 cells, ratio to DXD [10]: 1.3305
IC50 in A549 cells, ratio to DXD [11]: 0.4500
IC50 in H1650 cells, ratio to DXD [12]: 0.8758

CC[C@@]1(O)C(=O)OCc2c1cc1n(c2=O)Cc2c-1nc1cc(F)c(C)c3c1c2[C@@H](NC(=O)OCCCO)CC3 [PY-4Car3C, 3-hydroxypropyl((1S,9S)-9-ethyl-5-fluoro-9-hydroxy-4-methyl-10,13-dioxo-2,3,9,10,13,15-hexahydro-1H,12H-benzo[d]pyrano[3′,4′:6,7]indolizino[1,2-b]quinolin-1-yl)carbamate]
IC50 on 468 cells, ratio to DXD (retest) [1, 13]: 0.5740
IC50 on N87 cells, ratio to DXD (retest) [2, 13]: 0.3593
logD ([3]; pH 2.5): 2.2
logD ([3]; pH 7.4): 2.29

CC[C@@]1(O)C(=O)OCc2c1cc1n(c2=O)Cc2c-1nc1cc(F)c(C)c3c1c2[C@@H](CC(=O)NCCO)CC3 [PY-25B, 2-((1R,9S)-9-9-ethyl-5-fluoro-9-hydroxy-4-methyl-10,13-dioxo-2,3,9,10,13,15-hexahydro-1H,12H-benzo[de]pyrano[3′,4′:6,7]indolizino[1,2-b]quinolin-1-yl)-N-(2-hydroxyethyl)acetamide]
IC50 on 468 cells, ratio to DXD [1]: 1.3101
IC50 on N87 cells, ratio to DXD [2]: 2.9428
